Measured values published in patent US6500414B2, “Aromatic dimethicone copolyol polymers as sunscreen agents in personal care applications” (Siltech LLC, priority 2000, dated 2002).

Assay: UV maxima for the absorption
Assay type: physicochemical
Conditions: spectral region of the absorption
Excerpt: The following comparison is a common silicone backbone, with differing, “b”, and “c” values. The effect upon solubility at 5% in water and the UV maxima for the absorption are quite dramatic.

SMILES: C=CCc1ccc(O)c(OC)c1 [eugenol, 2-methoxy-4-(2 propenyl)phenol]
- UV absorption region: UV-C region
